Among the test systems are MDA-MB-231; MCF7; OVCAR-4; HL-60; UO-31; SF-295; HOP-62; BT-549; OVCAR-3; NCI-H226; NCI-H522; HT-29; TK-10; ACHN; RXF 393; U-251; SF-539; COLO 205; OVCAR-8; SN12C.
What all share (assay): inhibition of tumour cell growth, NCI panel, 48 h

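In this assay, cells in 96-well plates receive the compound at five concentrations for 48 hours. Endpoints are linearly interpolated between the surrounding concentrations. GI50 marks 50% less growth.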 Activity calls are given as the source filed them. Cut-off read from the data, not from the text of the source: active = GI50 up to about 1.1 µM and inactive = higher.

Consider `CCCC(c1cc(C(C)(C)C)c(O)cc1C)c1cc(C(C)(C)C)c(O)cc1C`, for which the GI50 is 3.56 µM (inactive) in the assay on MDA-MB-231; 2.06 µM (inactive) in the assay on MCF7; 5.13 µM (inactive) with OVCAR-4; 2.27 µM (inactive) in the assay on HL-60; 3.33 µM (inactive) in the assay with UO-31; 2.4 µM (inactive) in the assay with SF-295. The GI50 in the assay on HOP-62 was 3.05 µM (inactive); with BT-549, 9.79 µM (inactive); in the assay with OVCAR-3, 1.81 µM (inactive); with NCI-H226 it was 2.3 µM (inactive); in the assay with NCI-H522, 2.33 µM (inactive); in the assay on HT-29 it was 6.65 µM (inactive). The GI50 in the assay with TK-10 was 3.2 µM (inactive); in the assay with ACHN, 2.67 µM (inactive); in the assay on RXF 393, 1.99 µM (inactive); in the assay with U-251, 2.65 µM (inactive); with SF-539, 2.39 µM (inactive); in the assay with COLO 205 it was 2.33 µM (inactive). In addition, the values for the GI50 in the assay on OVCAR-8 and with SN12C were 4.03 µM (inactive) and 1.94 µM (inactive), respectively.
In the case of `CC(=NNC(=S)Nc1ccccc1)c1cccc(C(C)=NNC(=S)Nc2ccccc2)n1`, the GI50 in the assay with MDA-MB-231 was 4.62 µM (inactive); with MCF7 it was 3.11 µM (inactive); with OVCAR-4, 3.66 µM (inactive); with HL-60, 0.189 µM (active); with UO-31 it was 2.34 µM (inactive); with SF-295, 3.62 µM (inactive). For the same molecule, the GI50 was 2.11 µM (inactive) in the assay with HOP-62; 12.2 µM (inactive) in the assay on BT-549; 1.38 µM (inactive) with OVCAR-3; 1.06 µM (active) with NCI-H226; 5.35 µM (inactive) in the assay on NCI-H522; 2.34 µM (inactive) in the assay on HT-29. Also, the GI50 in the assay on TK-10 is 4.24 µM (inactive); in the assay on ACHN, 1.23 µM (inactive); in the assay with RXF 393 it was 3.01 µM (inactive); in the assay with U-251 it was 4.99 µM (inactive); with SF-539, 1.47 µM (inactive); in the assay on COLO 205, 2.48 µM (inactive). For the same molecule, the values for the GI50 in the assay on OVCAR-8 and in the assay on SN12C were 0.968 µM (active) and 4.48 µM (inactive), respectively.
As to `COc1cc(-c2oc(/C=N/c3ccccc3)c([N+](=O)[O-])c2-c2ccc(O)c(OC)c2)ccc1O`, the GI50 in the assay with MDA-MB-231 was 27.5 µM (inactive); in the assay with MCF7, 23.9 µM (inactive); in the assay with OVCAR-4, 19.1 µM (inactive); with HL-60 it was 0.412 µM (active); with UO-31 it was 15.1 µM (inactive); in the assay with SF-295, 31.6 µM (inactive). For the same molecule, the GI50 in the assay with HOP-62 was 33.8 µM (inactive); in the assay with BT-549 it was 29.6 µM (inactive); with OVCAR-3, 35.4 µM (inactive); with NCI-H226, 26.9 µM (inactive); with NCI-H522 it was 12.5 µM (inactive); in the assay with HT-29, 17.1 µM (inactive). Besides, the GI50 is 18 µM (inactive) in the assay with TK-10; 16.1 µM (inactive) in the assay on ACHN; 22.8 µM (inactive) in the assay with RXF 393; 23.4 µM (inactive) in the assay with U-251; 17.4 µM (inactive) in the assay on SF-539; 20.3 µM (inactive) in the assay on COLO 205. The figures for the GI50 with OVCAR-8 and with SN12C were 17.3 µM (inactive) and 27 µM (inactive), respectively.
Take `CC(O)C1(CNc2cc(Cl)nc(N)n2)CC(CCc2ccccc2)C1` (stereo not given): the GI50 with MDA-MB-231 was 10.7 µM (inactive); in the assay on MCF7, 0.108 µM (active); with OVCAR-4 it was 10.2 µM (inactive); with HL-60, 14.1 µM (inactive); in the assay on UO-31, 12.1 µM (inactive); in the assay on SF-295, 14.4 µM (inactive). Besides, the GI50 with HOP-62 was 14.1 µM (inactive); in the assay on BT-549 it was 15.9 µM (inactive); in the assay with OVCAR-3 it was 16.1 µM (inactive); with NCI-H226 it was 14.7 µM (inactive); in the assay with NCI-H522 it was 8.41 µM (inactive); in the assay on HT-29, 13 µM (inactive). The GI50 is 16.1 µM (inactive) in the assay on TK-10; 9.73 µM (inactive) with ACHN; 16.6 µM (inactive) in the assay on RXF 393; 14.5 µM (inactive) with U-251; 16.6 µM (inactive) in the assay with SF-539; 15.5 µM (inactive) in the assay on COLO 205. Also, the GI50 in the assay with OVCAR-8 is 14.5 µM (inactive); in the assay on SN12C it was 7.66 µM (inactive).
For the molecule `CC(Br)C(=O)Nc1ccc(C(=O)O)c(O)c1` (stereo not given), the GI50 with MDA-MB-231 was 68.2 µM (inactive); in the assay with MCF7, 83.4 µM (inactive); in the assay with OVCAR-4 it was 45.4 µM (inactive); in the assay on HL-60, 26.6 µM (inactive); in the assay on UO-31, > 100 µM (inactive); with SF-295, > 100 µM (inactive). Further, the GI50 in the assay on HOP-62 was 34.8 µM (inactive); in the assay on BT-549 it was 37.2 µM (inactive); in the assay on OVCAR-3, 29.2 µM (inactive); in the assay on NCI-H226, 93.5 µM (inactive); with NCI-H522 it was 20 µM (inactive); in the assay on HT-29 it was 62.4 µM (inactive). For the same molecule, the GI50 was 52.4 µM (inactive) in the assay with TK-10; > 100 µM (inactive) in the assay with ACHN; 53.6 µM (inactive) in the assay with RXF 393; 23.2 µM (inactive) in the assay on U-251; 38.6 µM (inactive) with SF-539; > 100 µM (inactive) in the assay on COLO 205. The GI50 with OVCAR-8 was 52.8 µM (inactive); with SN12C, 24.7 µM (inactive).
For the molecule `O=C1/C(=C/c2ccc(O)c(O)c2)CC/C1=C\c1ccc(O)c(O)c1`, the GI50 was 28.7 µM (inactive) in the assay on MDA-MB-231; 6.15 µM (inactive) with MCF7; 5.33 µM (inactive) in the assay on OVCAR-4; 3.39 µM (inactive) in the assay with HL-60; 2.29 µM (inactive) in the assay with UO-31; > 44.5 µM (inactive) in the assay with SF-295. The GI50 in the assay with HOP-62 is 7.11 µM (inactive); with BT-549, 5.04 µM (inactive); in the assay with OVCAR-3 it was 5.09 µM (inactive); with NCI-H226, 7.46 µM (inactive); in the assay with NCI-H522, 2.01 µM (inactive); in the assay with HT-29, 18.5 µM (inactive). For the same molecule, the GI50 with TK-10 was > 25.9 µM (inactive); in the assay with ACHN, 4.98 µM (inactive); in the assay with RXF 393 it was 3.25 µM (inactive); in the assay on U-251, 3.97 µM (inactive); in the assay on SF-539, 2.49 µM (inactive); in the assay with COLO 205, 16.2 µM (inactive). Also, the GI50 with OVCAR-8 was 10 µM (inactive); with SN12C, 7.29 µM (inactive).

Values taken from ChEMBL document CHEMBL1201862, “PubChem BioAssay data set” (2004).
